ChEMBL document CHEMBL6092194, “Development of membrane-targeting chalcone derivatives as antibacterial agents against multidrug-resistant bacteria” (Eur J Med Chem, 2024)
Activity calls are given as the source filed them. The calls are words filed in the database; no cut-off is given here.

Tests used:
[1] = Ratio of MBC for Escherichia coli ATCC25922 measured after 6 hrs in presence of 50% plasma to MBC for Escherichia coli ATCC25922 in Mueller Hinton Broth; assay type: functional
Acinetobacter baumannii = test: Antibacterial activity against Acinetobacter baumannii ATCC19606 by broth microdilution assay; assay type: functional
Escherichia coli [2] = test: Antibacterial activity against Escherichia coli ATCC25922 infected in sepsis mouse model assessed as reduction in spleen inflammation at 5 to 10 mg/kg pre-infected with bacteria for 1 hrs followed by compound administration at 12 hrs interval for 2 days by H and E staining based analysis; assay type: functional, organism-based; conditions: dose 5-10 mg/kg, time 2.0 day
Cell membrane [3] = test: Disruption of cell membrane in Staphylococcus aureus ATCC43300 assessed as appearance of red fluorescence by PI staining based fluorescence microscopic analysis
Staphylococcus aureus [4] = test: Induction of morphological changes in Staphylococcus aureus ATCC43300 assessed as rough appearance of cell membrane by scanning electron microscopic analysis; assay type: functional, organism-based
Cell membrane [5] = test: Disruption of cell membrane in Escherichia coli ATCC25922 assessed as appearance of blue fluorescence by DAPI staining based fluorescence microscopic analysis; assay type: subcellular
Pseudomonas aeruginosa = test: Antibacterial activity against penicillin-susceptible Pseudomonas aeruginosa ATCC27853 by broth microdilution method; assay type: functional
Staphylococcus aureus [6] = test: Disruption of preformed biofilm in Staphylococcus aureus ATCC43300 assessed as eradication of biofilm at 32 microg/ml relative to control; assay type: functional; conditions: dose 32 µg/ml
Escherichia coli [7] = test: Antibacterial activity against Escherichia coli ATCC25922 infected in sepsis mouse model assessed as log reduction in bacterial load in spleen at 5 mg/kg pre-infected with bacteria for 1 hrs followed by compound administration at 12 hrs interval for 2 days relative to control; assay type: functional; conditions: time 2 day
Escherichia coli [8] = test: Antibacterial activity against Escherichia coli ATCC25922 infected in sepsis mouse model assessed as reduction in liver inflammation at 5 to 10 mg/kg pre-infected with bacteria for 1 hrs followed by compound administration at 12 hrs interval for 2 days by H and E staining based analysis; assay type: functional, organism-based; conditions: dose 5-10 mg/kg, time 2.0 day
Staphylococcus aureus [9] = test: Drug resistance, ratio of MIC for Staphylococcus aureus ATCC43300 measured after 20 passages to MIC for Staphylococcus aureus ATCC43300 measured after first exposure; assay type: functional
Enterococcus faecalis = test: Antibacterial activity against vancomycin susceptible Enterococcus faecalis ATCC29212 by broth microdilution assay; assay type: functional
Cell membrane [10] = test: Induction of cytoplasmic membrane depolarization in Escherichia coli ATCC25922 assessed as increase in fluorescence intensity measured after 24 mins by DiSC3(5) dye-based fluorescence assay; conditions: dose 0.5-8 µg/ml
Escherichia coli [11] = test: Bactericidal activity against Escherichia coli ATCC25922 assessed as log reduction in bacterial colony at 8 times of MIC measured after 6 hrs by time-kill kinetics assay; assay type: functional
Cell membrane [12] = test: Induction of inner membrane permeabilization in Staphylococcus aureus ATCC43300 assessed as fold increase in fluorescence intensity at 8 microg/ml incubated for 20 mins by PI uptake assay relative to negative control; assay type: subcellular; conditions: dose 8.0 µg/ml
Bacillus subtilis = test: Antibacterial activity against penicillin-susceptible Bacillus subtilis ATCC9372 by broth microdilution assay; assay type: functional
Escherichia coli [13] = test: Antibacterial activity against Escherichia coli ATCC25922 infected in sepsis mouse model assessed as log reduction in bacterial load in blood at 5 mg/kg pre-infected with bacteria for 1 hrs followed by compound administration at 12 hrs interval for 2 days relative to control; assay type: functional; conditions: time 2 day
Staphylococcus aureus [14] = test: Antibiofilm activity against Staphylococcus aureus ATCC43300 assessed as inhibition of biofilm formation at 16 microg/ml relative to control; assay type: functional
Staphylococcus aureus [15] = test: Selectivity ratio of MBC for Staphylococcus aureus ATCC43300 in presence of 50% blood to MBC for Staphylococcus aureus ATCC43300 in Mueller Hinton Broth; assay type: functional
Klebsiella pneumoniae = test: Antibacterial activity against Klebsiella pneumoniae ATCC10031 by broth microdilution assay; assay type: functional
Escherichia coli [16] = test: Disruption of preformed biofilm in Escherichia coli ATCC25922 assessed as eradication of biofilm at 32 microg/ml relative to control; assay type: functional; conditions: dose 32 µg/ml
Staphylococcus aureus [17] = test: Antibacterial activity against Staphylococcus aureus ATCC43300 infected in sepsis mouse model assessed as log reduction in bacterial load in spleen at 10 mg/kg pre-infected with bacteria for 1 hrs followed by compound administration at 12 hrs interval for 2 days relative to control; assay type: functional; conditions: time 2 day
Escherichia coli [18] = test: Antibacterial activity against Escherichia coli ATCC25922 infected in sepsis mouse model assessed as log reduction in bacterial load in kidney at 5 mg/kg pre-infected with bacteria for 1 hrs followed by compound administration at 12 hrs interval for 2 days relative to control; assay type: functional; conditions: time 2 day
Staphylococcus aureus [19] = test: Antibacterial activity against Staphylococcus aureus ATCC43300 infected in sepsis mouse model assessed as reduction in kidney damage at 5 to 10 mg/kg pre-infected with bacteria for 1 hrs followed by compound administration at 12 hrs interval for 2 days by H and E staining based analysis; assay type: functional, organism-based; conditions: dose 5-10 mg/kg, time 2.0 day
Staphylococcus aureus [20] = test: Antibacterial activity against Staphylococcus aureus ATCC43300 infected in sepsis mouse model assessed as reduction in kidney inflammation at 5 to 10 mg/kg pre-infected with bacteria for 1 hrs followed by compound administration at 12 hrs interval for 2 days by H and E staining based analysis; assay type: functional, organism-based; conditions: dose 5-10 mg/kg, time 2.0 day
Staphylococcus aureus [21] = test: Disruption of preformed biofilm in Staphylococcus aureus ATCC43300 assessed as eradication of biofilm at 8 microg/ml relative to control; assay type: functional; conditions: dose 8 µg/ml
Escherichia coli [22] = test: Antibacterial activity against Escherichia coli ATCC25922 infected in sepsis mouse model assessed as reduction in inflammatory cell infiltration in liver at 10 mg/kg pre-infected with bacteria for 1 hrs followed by compound administration at 12 hrs interval for 2 days by H and E staining based analysis; assay type: functional, organism-based; conditions: time 2.0 day
Escherichia coli [23] = test: Antibacterial activity against penicillin-susceptible Escherichia coli ATCC25922 by broth microdilution method; assay type: functional
Cell membrane [24] = test: Induction of inner membrane permeabilization in Escherichia coli ATCC25922 assessed as fold increase in fluorescence intensity at 8 microg/ml incubated for 20 mins by PI uptake assay relative to negative control; assay type: subcellular; conditions: dose 8.0 µg/ml
Staphylococcus aureus [25] = test: Antibiofilm activity against Staphylococcus aureus ATCC43300 assessed as inhibition of biofilm formation at 8 microg/ml relative to control; assay type: functional
Staphylococcus aureus [26] = test: Antibacterial activity against Staphylococcus aureus ATCC43300 infected in sepsis mouse model assessed as reduction in inflammatory cell infiltration in kidney at 10 mg/kg pre-infected with bacteria for 1 hrs followed by compound administration at 12 hrs interval for 2 days by H and E staining based analysis; assay type: functional, organism-based; conditions: time 2.0 day
Escherichia coli [27] = test: Induction of morphological changes in Escherichia coli ATCC25922 assessed as disruption of cell membrane by scanning electron microscopic analysis; assay type: functional, organism-based
Escherichia coli [28] = test: Bactericidal activity against Escherichia coli ATCC25922 in presence of 50% plasma; assay type: functional
Staphylococcus aureus [29] = test: Antibacterial activity against Staphylococcus aureus ATCC43300 infected in sepsis mouse model assessed as log reduction in bacterial load in liver at 5 mg/kg pre-infected with bacteria for 1 hrs followed by compound administration at 12 hrs interval for 2 days relative to control; assay type: functional; conditions: time 2 day
Escherichia coli [30] = test: Bactericidal activity against Escherichia coli ATCC25922 in presence of 50% blood; assay type: functional
[31] = Cytotoxicity against human L02 cells assessed as cell survival at 16 microg/ml by CCK8 assay relative to control; assay type: toxicity, cell-based; conditions: at 16 µg/mL, read-out: Survival

For CCCCCCOc1cc[n+](CCCOc2ccc(/C=C/C(=O)c3ccc(OCCC[n+]4ccc(OCCCCCC)cc4)cc3)cc2)cc1.[Br-].[Br-], which Ratio [1] is on record?
The Ratio was <4.

And the MIC (Acinetobacter baumannii)?
The MIC was 16 µg/mL.

What about the Activity (Escherichia coli [2]) of the same molecule?
The Activity was “Active”.

What about the Activity (Cell membrane [3]) of the same molecule?
The Activity was “Active”.

What about the Activity (Staphylococcus aureus [4]) of the same molecule?
The Activity was “Active”.

What about the Activity (Cell membrane [5]) of the same molecule?
Its Activity is “Active”.

What about the MIC (Pseudomonas aeruginosa) of the same molecule?
Its MIC is 32 µg/mL.

What about the Activity (Staphylococcus aureus [6]) of the same molecule?
The Activity was >35.94%.

What about the “log(activity)” value (Escherichia coli [7]) of the same molecule?
The value was 1.92.

And the Activity (Escherichia coli [8])?
The Activity was “Active”.

What about the Ratio (Staphylococcus aureus [9]) of the same molecule?
Its Ratio is 4.

And the MIC (Enterococcus faecalis)?
Its MIC is 0.5 µg/mL.

And the Activity (Cell membrane [10])?
Its Activity is “Dose-dependent-effect”.

And the “log(activity)” value (Escherichia coli [11])?
Its value is 8.31.

What about the fold change (FC) (Cell membrane [12]) of the same molecule?
Its fold change (FC) is 1.5.

What about the MIC (Bacillus subtilis) of the same molecule?
Its MIC is 1 µg/mL.

What about the “log(activity)” value (Escherichia coli [13]) of the same molecule?
Its value is 0.71.

What about the inhibition at 16 µg/mL (Staphylococcus aureus [14]) of the same molecule?
Its inhibition at 16 µg/mL is 90.9%.

What about the Ratio (Staphylococcus aureus [15]) of the same molecule?
The Ratio was < 2.

What about the MIC (Klebsiella pneumoniae) of the same molecule?
The MIC was 1 µg/mL.

What about the Activity (Escherichia coli [16]) of the same molecule?
Its Activity is >49.08%.

And the “log(activity)” value (Staphylococcus aureus [17])?
Its value is 1.52.

And the “log(activity)” value (Escherichia coli [18])?
The value was 1.65.

And the Activity (Staphylococcus aureus [19])?
The Activity was “Active”.

What about the Activity (Staphylococcus aureus [20]) of the same molecule?
Its Activity is “Active”.

What about the Activity (Staphylococcus aureus [21]) of the same molecule?
Its Activity is 20.8%.

And the Activity (Escherichia coli [22])?
Its Activity is “inactive”.

What about the MIC (Escherichia coli [23]) of the same molecule?
The MIC was 1 µg/mL.

What about the fold change (FC) (Cell membrane [24]) of the same molecule?
The fold change (FC) was 1.9.

And the inhibition at 8 µg/mL (Staphylococcus aureus [25])?
The inhibition at 8 µg/mL was 90.8%.

What about the Activity (Staphylococcus aureus [26]) of the same molecule?
Its Activity is “inactive”.

And the Activity (Escherichia coli [27])?
Its Activity is “Active”.

And the MBC (Escherichia coli [28])?
Its MBC is 8 µg/mL.

What about the “log(activity)” value (Staphylococcus aureus [29]) of the same molecule?
Its value is 0.91.

What about the MIC (Escherichia coli [30]) of the same molecule?
The MIC was 32 µg/mL.

What about the viability at 16 microg/ml [31] of the same molecule?
Its viability at 16 microg/ml is > 83%.
